Results on nine compounds are retold here after US20090215778A1, “Alpha-substituted Arylmethyl Piperazine Pyrazolo [1,5-alpha]Pyrimidine Amide Derivatives” (priority 2007, published 2009).

One test concerns HIV-1, NL4-3 strain. Briefly: Virus infection assay (virus entry and single-cycle infection). In kind it is cell-based. The following applies: Human immunodeficiency virus 1, NL43, TZM-b1, read-out: Nl4. As to the method: TZM-b1 indicator cells were propagated in Dulbecco's Modified Eagle's Medium (DMEM) containing 10% fetal bovine serum (FBS, heat-inactivated) and supplemented with gentamicin (50 ug/mL).
This assay determines the effects of compounds on virus entry and single-cycle infection of cells. In this assay, virus (HIV-1, NL4-3 strain) is added to indicator cells expressing the CD4 receptor and both the CXCR4 and CCR5 co-receptor. The cells contain both a lac Z and a luciferase reporter gene under control of the viral LTR transcription promoter. The cells and virus are incubated together in the presence of various concentrations of test compounds. Successful infection of the cells by the virus permits activation of the reporter gene by the viral Tat transcription factor. The resulting beta-galactosidase or luciferase activity is quantitated using a chemiluminescent substrate and a luminescent plate reader.
Specifically, one day prior to infection, 1.5×10^4 TZM-b1 indicator cells were added to each well of a 96-well microtiter plate. On the day of the experiment, virus (MOI 0.01) in 50 μL of medium (Dulbecco's Modified Eagle's Medium) supplemented with DEAE-dextran at a final concentration of 80 μg/mL was added to cells along with various concentrations of test compound in 50 μL of Dulbecco's Modified Eagle's Medium. Control wells had virus alone. Following a 4 hr incubation at 37° C., complete media [DMEM supplemented with 10% fetal bovine serum (FBS, heat-inactivated) and gentamicin (50 ug/mL)] was added. One day post-infection the level of virus infection was quantitated by detection of β-galactosidase expression using the Gal-Screen system (Applied Biosystems).

For test [1], the target named is T1, HIV Env six-helix bundle (6HB) structure (Human immunodeficiency virus type 1 group M subtype B, UniProt P04579).
T1 construct: H9 cells chronically infected with HIV-1 (H9/HIV-1RF); endogenous in cells; host or cells: H9 cells chronically infected with HIV-1 strain RF (Env is made from the virus in the infected cells, not by transfection)
As to the kind of experiment: Six-helix bundle (6HB) assay. In kind it is cell-based, HIV-1 (strain RF). As to the method:
3×10^6H9 cells were incubated with 1 mL of HIV-1 (strain RF) supplemented with 40 μg/mL of DEAE-dextran. Virus and cells were incubated together at 37° C. for 2-4 hours with sporadic shaking to resuspend cells. 10 mL of media (RPMI 1640 containing 10% fetal bovine serum and supplemented with 50 μg/mL gentamicin) was then added and the virus-cell coculture was incubated at 37° C. in a humidified 5% CO2 incubator. 3 days post-infection and every 2-3 days thereafter, the infected H9/HIV-1RF cells were centrifuged, the supernatant was removed, and the cells were resuspended at a density of 0.3×10^6 cells/mL in media (RPMI 1640 containing 10% fetal bovine serum and supplemented with 50 μg/mL gentamicin). Chronically infected H9/HIV-1RF cells were used in experiments starting 12-15 days after infection and up to 40 days post-infection.
This assay determines the effect of compounds on conformational changes in HIV envelope glycoprotein (Env) that are required in order for Env to mediate the fusion of the viral and cellular membranes during virus entry and infection. Specifically, this assay measures the effect of compounds on the formation of the HIV Env six-helix bundle (6HB) structure.
H9 cells chronically infected with HIV-1 (H9/HIV-1RF) were resuspended in Stain/Wash Buffer (1% bovine serum albumin, 0.1% sodium azide in phosphate-buffered saline) and aliquoted at 2.5×10^5 cells per well into 96-well V-bottom plates containing various concentrations of test compounds. Cells and compounds were incubated for 30 minutes at 37° C. Recombinant soluble CD4 (sCD4) was then added to a final concentration of 1 μg/mL. Negative control wells contained no sCD4 and no test compound. Positive control wells contained sCD4 but no test compound. The plate was incubated for 1 hour at 37° C. to allow the sCD4 to bind to HIV Env and induce conformational changes in the Env protein. Antibody that is specific for the HIV Env six-helix bundle conformation was then added (1 μL polyclonal rabbit serum per well), and the plate was incubated for an additional 1 hour at 37° C. to permit antibody binding. The cells were then washed once with Stain/Wash Buffer to remove compound and excess antibody. The cells were resuspended in Stain/Wash Buffer containing PE-labeled anti-rabbit secondary antibody (KPL) at 0.25 μg per well. The cells were incubated for 45 min at 4° C. to permit secondary antibody binding. Fluorescence was detected using a BD FACSArray™ bioanalyzer. Compounds that inhibited Env conformational changes were identified as those that decreased primary antibody binding to the six-helix bundle epitope resulting in a decrease in fluorescence signal.

T1 sequence (P04579 32-519): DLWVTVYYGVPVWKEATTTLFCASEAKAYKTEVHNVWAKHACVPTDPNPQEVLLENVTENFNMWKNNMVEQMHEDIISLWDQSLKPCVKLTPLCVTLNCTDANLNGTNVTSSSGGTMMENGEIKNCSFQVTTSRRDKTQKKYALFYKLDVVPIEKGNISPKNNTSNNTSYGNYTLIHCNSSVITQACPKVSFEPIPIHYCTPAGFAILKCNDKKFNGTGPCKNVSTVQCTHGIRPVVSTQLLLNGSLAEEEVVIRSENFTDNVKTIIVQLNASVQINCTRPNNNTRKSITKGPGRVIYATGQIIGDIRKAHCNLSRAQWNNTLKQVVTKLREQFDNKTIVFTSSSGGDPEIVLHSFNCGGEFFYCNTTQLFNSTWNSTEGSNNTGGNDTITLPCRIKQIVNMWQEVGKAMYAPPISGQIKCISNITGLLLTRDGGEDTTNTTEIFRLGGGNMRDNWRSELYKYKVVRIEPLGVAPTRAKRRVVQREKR
T1 sequence (P04579 520-865): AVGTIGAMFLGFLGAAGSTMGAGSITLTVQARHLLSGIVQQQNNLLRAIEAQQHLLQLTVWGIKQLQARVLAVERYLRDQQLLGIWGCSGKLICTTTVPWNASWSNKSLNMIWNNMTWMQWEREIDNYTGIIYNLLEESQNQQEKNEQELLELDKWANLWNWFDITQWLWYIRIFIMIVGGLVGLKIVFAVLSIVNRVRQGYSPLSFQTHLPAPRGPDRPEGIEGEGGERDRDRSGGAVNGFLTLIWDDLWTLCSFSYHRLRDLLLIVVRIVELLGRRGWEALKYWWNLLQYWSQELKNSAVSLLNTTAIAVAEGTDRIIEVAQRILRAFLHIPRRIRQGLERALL

With `COc1ccc(-c2nc3c(C(=O)N4CCN(C(CNC(C)=O)c5ccccc5)C[C@H]4C)cnn3c(C(F)(F)F)c2C)cc1` (stereo partly drawn) [acetamide, N-[2-[(3R)-4-[[5-(4-methoxyphenyl)-6-methyl-7-(trifluoromethyl)pyrazolo[1,5-α]pyrimidin-3-yl]carbonyl]-3-methyl-1-piperazinyl]-2-phenylethyl]-], the IC50 with HIV-1, NL4-3 strain is less than 1000 nM; in test [1] it was less than 1000 nM.

For `COc1ccc(-c2nc3c(C(=O)N4CCN(C(CO)c5cccc(NC(C)=O)c5)C[C@H]4C)cnn3c(C(F)(F)F)c2C)cc1` (stereo partly drawn) [acetamide, N-[3-[2-hydroxy-1-[(3R)-4-[[5-(4-methoxyphenyl)-6-methyl-7-(trifluoromethyl)pyrazolo[1,5-α]pyrimidin-3-yl]carbonyl]-3-methyl-1-piperazinyl]ethyl]phenyl]-], the IC50 with HIV-1, NL4-3 strain is less than 1000 nM; in test [1], less than 1000 nM.

Take `COc1ccc(-c2nc3c(C(=O)N4CCN([C@@H](C)c5cccc(NC(C)=O)c5)C[C@H]4C)cnn3c(C(F)(F)F)c2C)cc1` [acetamide, N-[3-[(1S)-1-[(3R)-4-[[5-(4-methoxyphenyl)-6-methyl-7-(trifluoromethyl)pyrazolo[1,5-α]pyrimidin-3-yl]carbonyl]-3-methyl-1-piperazinyl]ethyl]phenyl]-]: the IC50 was less than 1000 nM in the test on HIV-1, NL4-3 strain and less than 1000 nM in test [1].

As for `COc1ccc(-c2nc3c(C(=O)N4CCN([C@@H](C)c5ccc(NC(C)=O)cc5)C[C@H]4C)cnn3c(C(F)(F)F)c2C)cc1` [acetamide, N-[4-[(1S)-1-[(3R)-4-[[5-(4-methoxyphenyl)-6-methyl-7-(trifluoromethyl)pyrazolo[1,5-α]pyrimidin-3-yl]carbonyl]-3-methyl-1-piperazinyl]ethyl]phenyl]-], the IC50 was 1100 to 10000 nM with HIV-1, NL4-3 strain and greater than 10100 nM in test [1].

With `COc1ccc(-c2nc3c(C(=O)N4CCN(C(CO)c5cccc(CNC(C)=O)c5)C[C@H]4C)cnn3c(C(F)(F)F)c2C)cc1` (stereo partly drawn) [acetamide, N-[[3-[2-hydroxy-1-[(3R)-4-[[5-(4-methoxyphenyl)-6-methyl-7-(trifluoromethyl)pyrazolo[1,5-α]pyrimidin-3-yl]carbonyl]-3-methyl-1-piperazinyl]ethyl]phenyl]methyl]-], the IC50 with HIV-1, NL4-3 strain was greater than 10100 nM; in test [1] it was greater than 10100 nM.

Turning to `COc1ccc(-c2nc3c(C(=O)N4CCN(C(CO)c5cccc(C(N)=O)c5)C[C@H]4C)cnn3c(C(F)(F)F)c2C)cc1` (stereo partly drawn) [benzamide, 3-[2-hydroxy-1-[(3R)-4-[[5-(4-methoxyphenyl)-6-methyl-7-(trifluoromethyl)pyrazolo[1,5-α]pyrimidin-3-yl]carbonyl]-3-methyl-1-piperazinyl]ethyl]-], the IC50 with HIV-1, NL4-3 strain is less than 1000 nM; in test [1], less than 1000 nM.

As for `COc1ccc(-c2nc3c(C(=O)N4CCN(C(CO)c5cccc(S(N)(=O)=O)c5)C[C@H]4C)cnn3c(C(F)(F)F)c2C)cc1` (stereo partly drawn) [benzenesulfonamide, 3-[2-hydroxy-1-[(3R)-4-[[5-(4-methoxyphenyl)-6-methyl-7-(trifluoromethyl)pyrazolo[1,5-α]pyrimidin-3-yl]carbonyl]-3-methyl-1-piperazinyl]ethyl]-], the IC50 with HIV-1, NL4-3 strain was greater than 10100 nM; in test [1], greater than 10100 nM.

Consider `COc1ccc(-c2nc3c(C(=O)N4CCN(C(CO)c5ccccc5C#N)C[C@H]4C)cnn3c(C(F)(F)F)c2C)cc1` (stereo partly drawn) [benzonitrile, 2-[2-hydroxy-1-[(3R)-4-[[5-(4-methoxyphenyl)-6-methyl-7-(trifluoromethyl)pyrazolo[1,5-α]pyrimidin-3-yl]carbonyl]-3-methyl-1-piperazinyl]ethyl]-], for which the IC50 in the test with HIV-1, NL4-3 strain is less than 1000 nM; in test [1], less than 1000 nM.

On to `COc1ccc(-c2nc3c(C(=O)N4CCN([C@@H](C)c5ccccc5C#N)C[C@H]4C)cnn3c(C(F)(F)F)c2C)cc1` [benzonitrile, 2-[(1S)-1-[(3R)-4-[[5-(4-methoxyphenyl)-6-methyl-7-(trifluoromethyl)pyrazolo[1,5-α]pyrimidin-3-yl]carbonyl]-3-methyl-1-piperazinyl]ethyl]-], for which the IC50 in the test on HIV-1, NL4-3 strain was less than 1000 nM; in test [1], less than 1000 nM.
